Data on 17 compounds can be found in ChEMBL document CHEMBL4811310, “Antimalarial activity of 2,6-dibenzylidenecyclohexanone derivatives” (Bioorg Med Chem Lett, 2021).

In brackets after ≈: the same amount, converted by molar mass. Some results are limits rather than exact numbers.

In general, solubility refers to the concentration that dissolves in the medium under given conditions. Read a low solubility as little dissolved substance. In general, EC50 refers to the concentration needed to bring the measured effect to its halfway point. As a reminder, the inhibition is how much of the control response was suppressed.

A short description of data set [1]: Therapeutic index, ratio of EC50 for cytotoxicity against human BJ cells to EC50 for antimalarial activity against CQ-sensitive Plasmodium falciparum 3D7 MRA-102 infected in human O-positive erythrocytes. Type of data set: toxicity, cell-based. The settings on record: read-out: Ratio EC50.
A short description of data set [2]: Solubility in PBS buffer at pH 7.4. The data set is classed as physicochemical.
Data set [3] relates to BJ. The experiment in a line: Cytotoxicity against human BJ cells assessed as reduction in cell viability. Type of data set: cell-based.
For data set [4], the system named is Plasmodium falciparum. The experiment in a line: Antimalarial activity against CQ-sensitive Plasmodium falciparum 3D7 MRA-102 infected in human O-positive erythrocytes assessed as inhibition of parasite growth. To be noted: 3D7 MRA-102, Erythrocyte. Type of data set: functional, organism-based.
The nature of data set [5]: Cytotoxicity against human BJ cells assessed as reduction in cell viability at 58 uM. The data set is classed as cell-based. The settings on record: read-out: INH.
Data set [6] relates to Plasmodium falciparum. The experiment in a line: Antimalarial activity against CQ-sensitive Plasmodium falciparum 3D7 MRA-102 infected in human O-positive erythrocytes assessed as inhibition of parasite growth at 16 uM. To be noted: 3D7 MRA-102, Erythrocyte. The data set is classed as functional.
Data set [7] deals with Plasmodium falciparum. The data set is described as follows: Antimalarial activity against Plasmodium falciparum K1 infected in human erythrocytes assessed as inhibition of parasite growth. The data set is classed as functional, organism-based. The settings on record: K1, Erythrocyte.
Data set [8] relates to Plasmodium falciparum. The data set is described as follows: Antimalarial activity against Plasmodium falciparum V1S infected in human erythrocytes assessed as inhibition of parasite growth. The data set is classed as functional, organism-based. The settings on record: Erythrocyte.

As for `CC1C/C(=C\c2cccc(C(F)(F)F)c2)C(=O)/C(=C/c2cccc(C(F)(F)F)c2)C1` (configuration not stated), the selectivity ratio in data set [1] is 18. The compound also displayed a solubility in data set [2] of less than 1 µM. Moreover, the EC50 in data set [3] was determined as 20100 nM; in data set [4], 1100 nM.

With `O=C1/C(=C/c2cccc(C(F)(F)F)c2)CSC/C1=C\c1cccc(C(F)(F)F)c1`, the selectivity ratio in data set [1] was 28. This compound showed a solubility in data set [2] of 1.2 µM (≈ 0.514 µg/mL). In addition, the results for the EC50 in data set [3] and in data set [4] were 23200 nM and 820 nM, respectively.

Turning to `O=C1/C(=C/c2cccc(C(F)(F)F)c2)CS(=O)(=O)C/C1=C\c1cccc(C(F)(F)F)c1`, the selectivity ratio in data set [1] is less than 1. This compound also yielded a solubility in data set [2] of less than 1 µM. Also, the EC50 in data set [3] was found to be 120 nM; in data set [4] it was 393 nM.

As for `O=C1/C(=C/c2cccc(C(F)(F)F)c2)COC/C1=C\c1cccc(C(F)(F)F)c1`, the selectivity ratio in data set [1] amounted to 20. This compound also displayed a solubility in data set [2] of 1.4 µM (≈ 0.577 µg/mL). The EC50 in data set [3] came out at 23700 nM; in data set [4] it was 1160 nM.

On to `N#CC1(c2ccccc2)C/C(=C\c2cccc(C(F)(F)F)c2)C(O)/C(=C/c2cccc(C(F)(F)F)c2)C1` (configuration not stated), for which, in data set [1], the selectivity ratio is more than 7. This compound also displayed a solubility in data set [2] of 2.5 µM (≈ 1.28 µg/mL). Also, the EC50 in data set [3] was more than 24000 nM; in data set [4], 3210 nM.

As for `NC(=O)N1c2ccccc2C=Cc2ccccc21` [CARBAMAZEPINE], the solubility in data set [2] is more than 100 µM.

With `O=C1/C(=C/c2cccc(C(F)(F)F)c2)CC(c2ccccc2)C/C1=C\c1cccc(C(F)(F)F)c1` (configuration not stated), the selectivity ratio in data set [1] worked out at 3. Moreover, the concentration in solution in data set [2] (solubility) came to 1.1 µM (≈ 0.535 µg/mL). Besides, the EC50 in data set [3] came to 1530 nM; in data set [4] it was 491 nM.

In the case of `CC(=O)[C@]1(O)Cc2c(O)c3c(c(O)c2[C@@H](O[C@H]2C[C@H](N)[C@H](O)[C@H](C)O2)C1)C(=O)c1ccccc1C3=O` [IDARUBICIN], the cytotoxicity at 58 µM in data set [5] came out at 100%.

Consider `O[C@@H](c1cc(C(F)(F)F)nc2c(C(F)(F)F)cccc12)[C@H]1CCCCN1` [(S,R)-MEFLOQUINE], for which the inhibition at 16 µM in data set [6] was found to be 100%.

For `N#CC1(c2ccccc2)CC(Cc2cccc(C(F)(F)F)c2)C(=O)C(Cc2cccc(C(F)(F)F)c2)C1` (configuration not stated), the selectivity ratio in data set [1] is more than 23. Moreover, the solubility in data set [2] is 2.3 µM (≈ 1.19 µg/mL). Also, the results for the EC50 in data set [3] and in data set [4] were more than 24000 nM and 1030 nM, respectively.

Regarding `N#CC1(c2ccccc2)C/C(=C\c2cccc(C(F)(F)F)c2)C(=O)/C(=C/c2cccc(C(F)(F)F)c2)C1` (configuration not stated), the EC50 is 530 nM in data set [7], 570 nM in data set [3], 331 nM in data set [4] and 250 nM in data set [8]. For the same compound, the selectivity ratio in data set [1] came to 2.

Turning to `N#CC1(c2ccccc2)C/C(=C\c2cccc(F)c2)C(=O)/C(=C/c2cccc(F)c2)C1` (configuration not stated), the selectivity ratio in data set [1] came to 2. For the same compound, in data set [2], the solubility was less than 1 µM. Moreover, the EC50 in data set [3] turned out to be 2270 nM; in data set [4] it was 1130 nM.

Consider `N#CC1(c2ccccc2)C/C(=C\c2ccc(C(F)(F)F)cc2)C(=O)/C(=C/c2ccc(C(F)(F)F)cc2)C1` (configuration not stated), for which the selectivity ratio in data set [1] amounted to 2. The compound further came in with a solubility in data set [2] of less than 1 µM. Moreover, the EC50 in data set [3] was found to be 406 nM; in data set [4], 207 nM.

On to `O=C1/C(=C/c2cccc(C(F)(F)F)c2)CCC/C1=C\c1cccc(C(F)(F)F)c1`, for which the selectivity ratio in data set [1] amounted to 10. Further, the solubility in data set [2] was less than 1 µM. Further, the EC50 came out at 23500 nM in data set [3] and 2290 nM in data set [4].

Regarding `CCCSc1ccc2nc(NC(=O)OC)[nH]c2c1` [ALBENDAZOLE], the solubility in data set [2] was less than 1 µM.

`CC(C)(C)C1C/C(=C\c2cccc(C(F)(F)F)c2)C(=O)/C(=C/c2cccc(C(F)(F)F)c2)C1` (configuration not stated): in data set [1], the selectivity ratio was more than 37. The compound also gave a solubility in data set [2] of less than 1 µM. Besides, the EC50 in data set [3] is more than 24000 nM; in data set [4], 641 nM.

With `N#CC1(c2ccccc2)C/C(=C\c2ccccc2)C(=O)/C(=C/c2ccccc2)C1` (configuration not stated), the selectivity ratio in data set [1] is 4. In data set [2], this compound yielded a solubility of less than 1 µM. Further, the results for the EC50 in data set [3] and in data set [4] were 5850 nM and 1360 nM, respectively.
